The supplement of paper PMC10307832

Experiments:
Experiment in all cases: relative viability (nuclei count vs DMSO), 5 days (fraction); higher = more cells survive
Adavosertib + Olaparib = compound: C=CCn1c(=O)c2cnc(Nc3ccc(N4CCN(C)CC4)cc3)nc2n1-c1cccc(C(C)(C)O)n1 [Adavosertib] + O=C(c1cc(Cc2n[nH]c(=O)c3ccccc23)ccc1F)N1CCN(C(=O)C2CC2)CC1 [Olaparib] (partner 8 µM)
How it was run: (§1)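 For relative viability, nuclei counts in treated wells were divided by those in vehicle wells. Lung cancer cell lines had been pin-tool dosed in 1536-well plates the day after seeding and cultured for 5 days, then fixed and stained in one step (final 0.05% Triton X-100, 1% formaldehyde, 1 ug/ml Hoechst) and imaged at 4×. Doses were one drug alone or a fixed anchor-drug dose plus five library-drug doses (not always all listed) in √10 steps, and values are duplicate-plate medians.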

Nelarabine + AZD7762 = compound: COc1nc(N)nc2c1ncn2[C@@H]1O[C@H](CO)[C@@H](O)[C@@H]1O [Nelarabine] + NC(=O)Nc1cc(-c2cccc(F)c2)sc1C(=O)N[C@H]1CCCNC1 [AZD7762] (partner 0.2 µM)
How it was run: as §1

Adavosertib + Pictilisib = compound: C=CCn1c(=O)c2cnc(Nc3ccc(N4CCN(C)CC4)cc3)nc2n1-c1cccc(C(C)(C)O)n1 [Adavosertib] + CS(=O)(=O)N1CCN(Cc2cc3nc(-c4cccc5[nH]ncc45)nc(N4CCOCC4)c3s2)CC1 [Pictilisib] (partner 1 µM)
How it was run: as §1

Nelarabine + OSI-027 = compound: COc1nc(N)nc2c1ncn2[C@@H]1O[C@H](CO)[C@@H](O)[C@@H]1O [Nelarabine] + COc1cccc2cc(-c3nc([C@H]4CC[C@H](C(=O)O)CC4)n4ncnc(N)c34)[nH]c12 [OSI-027] (partner 0.5 µM)
How it was run: as §1

Adavosertib + AZD7762 = compound: C=CCn1c(=O)c2cnc(Nc3ccc(N4CCN(C)CC4)cc3)nc2n1-c1cccc(C(C)(C)O)n1 [Adavosertib] + NC(=O)Nc1cc(-c2cccc(F)c2)sc1C(=O)N[C@H]1CCCNC1 [AZD7762] (partner 0.2 µM)
How it was run: as §1

EMC-BAC-2
relative viability (Adavosertib + Olaparib; first compound 0.03162 µM): 0.493 | relative viability (Adavosertib + Olaparib; first compound 0.1 µM): 0.51 | relative viability (Adavosertib + Olaparib; first compound 0.3162 µM): 0.453 | relative viability (Nelarabine + AZD7762; first compound 0.01 µM): 1.2 | relative viability (Nelarabine + AZD7762; first compound 0.03162 µM): 1.1 | relative viability (Nelarabine + AZD7762; first compound 0.1 µM): 1.18 | relative viability (Nelarabine + AZD7762; first compound 0.3162 µM): 1.22 | relative viability (Nelarabine + AZD7762; first compound 1 µM): 1.17 | relative viability (Adavosertib + Pictilisib; first compound 0.01 µM): 0.544 | relative viability (Adavosertib + Pictilisib; first compound 0.03162 µM): 0.56 | relative viability (Adavosertib + Pictilisib; first compound 0.1 µM): 0.583 | relative viability (Adavosertib + Pictilisib; first compound 0.3162 µM): 0.544 | relative viability (Nelarabine + OSI-027; first compound 0.01 µM): 0.393 | relative viability (Nelarabine + OSI-027; first compound 0.03162 µM): 0.41 | relative viability (Nelarabine + OSI-027; first compound 0.1 µM): 0.398 | relative viability (Nelarabine + OSI-027; first compound 0.3162 µM): 0.36 | relative viability (Nelarabine + OSI-027; first compound 1 µM): 0.377 | relative viability (Adavosertib + AZD7762; first compound 0.03162 µM): 1.15 | relative viability (Adavosertib + AZD7762; first compound 0.1 µM): 0.887 | relative viability (Adavosertib + AZD7762; first compound 0.3162 µM): 1.06
